Patent publication US10098879B2 (priority 2015, dated 2018)

What was measured:
[1] = system: Ebola virus (EBOV); conditions: human, in vivo
[2] = system: Ebola virus; conditions: mouse, in vivo, 150 mg/kg; cited from earlier work

In the case of NC(=O)c1nc(F)cnc1O [Favipiravir, 6-fluoro-3-hydroxy-2-pyrazinecarboxamide], the “Effect on survival, patients with CT<20” value [1] is reported as “no indication that favipiravir monotherapy improved survival”, the “Mortality (participants died), baseline CT <20” value [1] is reported as 85% and the “Mortality (participants died), baseline CT ≥20” value [1] is reported as 15%. For the same compound, the “Mortality in patients with abnormal baseline creatinine values and BCT<20” value [1] was 100%, the “Mortality in patients with abnormal baseline creatinine values and BCT≥20” value [1] was 7% and the “Mortality rate versus pre-trial figures, patients with CT≥20” value [1] was “lower mortality rate compared to pre-trial figures”. The “Mortality (participants died), overall” value ([1]; po) was 48%, the “Tolerance of the drug” value ([1]; po) was “well tolerated” and the “Biochemical parameters of disease severity” value [2] was “reduced biochemical parameters of disease severity”. For the same compound, the Survival [2] was 100% and the Virus clearance [2] was “rapid virus clearance”.
